# In ChEMBL document CHEMBL4251553, “Synthesis, anticancer evaluation and pharmacokinetic study of novel 10-O-phenyl ethers of dihydroartemisinin” (Eur J Med Chem, 2017):
# Experiments:
# MDA-MB-231 = experiment: Antiproliferative activity against human MDA-MB-231 cells after 96 hrs by MTT assay; assay type: functional; details: MDA-MB-231, 96 h
# [1] = Selectivity ratio of GI50 for human MCF7 cells to GI50 for human MCF7/ADR cells; assay type: functional
# MCF7 [2] = experiment: Cell cycle arrest in human MCF7 cells assessed as accumulation at G0/G1 phase at 0.5 uM after 24 hrs by propidium iodide staining based flow cytometry (reference value: 57.83%); assay type: functional
# MCF7 [3] = experiment: Cell cycle arrest in human MCF7 cells assessed as accumulation at sub-G1 phase at 1 uM after 24 hrs by propidium iodide staining based flow cytometry (reference value: 1.78%); assay type: functional
# MCF7 [4] = experiment: Cell cycle arrest in human MCF7 cells assessed as accumulation at S-phase at 1 uM after 24 hrs by propidium iodide staining based flow cytometry (reference value: 18.24%); assay type: functional
# MCF7 [5] = experiment: Cell cycle arrest in human MCF7 cells assessed as accumulation at G2/M phase at 1 uM after 24 hrs by propidium iodide staining based flow cytometry (reference value: 22.57%); assay type: functional
# MCF7 [6] = experiment: Cell cycle arrest in human MCF7 cells assessed as accumulation at G2/M phase at 0.5 uM after 48 hrs by propidium iodide staining based flow cytometry (reference value: 24.26%); assay type: functional
# MCF7 [7] = experiment: Cell cycle arrest in human MCF7 cells assessed as accumulation at sub-G1 phase at 1 uM after 48 hrs by propidium iodide staining based flow cytometry (reference value: 0.18%); assay type: functional
# MCF7 [8] = experiment: Cell cycle arrest in human MCF7 cells assessed as accumulation at G2/M phase at 1 uM after 48 hrs by propidium iodide staining based flow cytometry (reference value: 24.26%); assay type: functional
# NCI/ADR-RES [9] = experiment: Cell cycle arrest in human MCF7/ADR cells assessed as accumulation at G0/G1 phase at 0.5 uM after 24 hrs by propidium iodide staining based flow cytometry (reference value: 45.98%); assay type: functional
# NCI/ADR-RES [10] = experiment: Cell cycle arrest in human MCF7/ADR cells assessed as accumulation at G0/G1 phase at 1 uM after 24 hrs by propidium iodide staining based flow cytometry (reference value: 45.98%); assay type: functional
# NCI/ADR-RES [11] = experiment: Cell cycle arrest in human MCF7/ADR cells assessed as accumulation at S-phase at 1 uM after 24 hrs by propidium iodide staining based flow cytometry (reference value: 25.87%); assay type: functional
# NCI/ADR-RES [12] = experiment: Cell cycle arrest in human MCF7/ADR cells assessed as accumulation at S-phase at 1 uM after 48 hrs by propidium iodide staining based flow cytometry (reference value: 29.45%); assay type: functional
# [13] = AUC (0 to t) in Sprague-Dawley rat at 10 mg/kg, iv administered as single dose by LC-MS/MS analysis; assay type: ADME, organism-based; details: in vivo
# [14] = AUC (0 to infinity) in Sprague-Dawley rat at 10 mg/kg, iv administered as single dose by LC-MS/MS analysis; assay type: ADME, organism-based; parameters: dose 10 mg/kg, route intravenous, time infinity; details: in vivo
# [15] = Plasma concentration in Sprague-Dawley rat at 10 mg/kg, iv administered as single dose measured at 2 hrs post dosing by LC-MS/MS analysis; assay type: ADME, organism-based
structure (smiles),measurement,setting,value
C[C@H]1[C@@H](Oc2ccc(-c3cc(-c4ccccc4)[nH]n3)cc2)O[C@@H]2O[C@@]3(C)CC[C@H]4[C@H](C)CC[C@@H]1[C@@]24OO3,GI50,MDA-MB-231,0.24 µM
same,RatioGI50,[1],11.7
same,Activity,MCF7 [2],70.95%
same,Activity,MCF7 [3],0.56%
same,Activity,MCF7 [4],10.13%
same,Activity,MCF7 [5],16.98%
same,Activity,MCF7 [6],17.38%
same,Activity,MCF7 [7],1.44%
same,Activity,MCF7 [8],11.53%
same,Activity,NCI/ADR-RES [9],50.52%
same,Activity,NCI/ADR-RES [10],61.78%
same,Activity,NCI/ADR-RES [11],9.75%
same,Activity,NCI/ADR-RES [12],9.72%
same,AUC(0-t),[13],2.91 µg·h/mL
same,AUC(0-inf),[14],2.92 µg·h/mL
same,concentration at 2 h,[15],0.227 µg/mL
